The source of these data is patent US8507535B2 (Hoffmann-La Roche Inc., priority 2010, dated 2013).

Molecules are shown by their SMILES.

human NK3 receptor, sequence (P29371 whole entry): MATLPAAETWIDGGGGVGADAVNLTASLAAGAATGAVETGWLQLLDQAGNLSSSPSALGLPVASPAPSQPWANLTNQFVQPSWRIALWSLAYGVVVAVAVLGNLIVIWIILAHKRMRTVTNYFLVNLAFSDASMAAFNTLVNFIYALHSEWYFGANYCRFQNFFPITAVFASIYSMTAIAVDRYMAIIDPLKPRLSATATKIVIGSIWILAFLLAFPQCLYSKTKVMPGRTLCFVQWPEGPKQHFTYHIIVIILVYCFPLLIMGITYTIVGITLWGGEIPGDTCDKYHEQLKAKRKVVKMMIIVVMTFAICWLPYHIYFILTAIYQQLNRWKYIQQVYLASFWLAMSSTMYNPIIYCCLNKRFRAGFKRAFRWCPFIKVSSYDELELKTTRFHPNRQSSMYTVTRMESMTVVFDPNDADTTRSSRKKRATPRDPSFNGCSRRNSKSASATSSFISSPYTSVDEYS

One test concerns the target human NK3 receptor (Homo sapiens (Human), UniProt P29371). Nature of the test: [3H]SR142801 competition binding assay. As to conditions: membranes from HEK293 cells transiently expressing recombinant human NK3 receptor; [3H]SR142801 radioligand; read-out: Ki (uM) hNK3. As for the experimental part:
[^3H]SR142801 Competition Binding Assay
hNK3 receptor binding experiment were performed using [^3H]SR142801 (Catalog No. TRK1035, specific activity: 74.0 Ci/mmol, Amersham, GE Healthcare UK limited, Buckinghamshire, UK) and membrane isolated from HEK293 cells transiently expressing recombinant human NK3 receptor. After thawing, the membrane homogenates were centrifuged at 48,000×g for 10 min at 4° C., the pellets were resuspended in the 50 mM Tris-HCl, 4 mM MnCl2, 1 μM phosphoramidon, 0.1% BSA binding buffer at pH 7.4 to a final assay concentration of 5 μg protein/well. For inhibition experiments, membranes were incubated with [^3H]SR142801 at a concentration equal to KD value of radioligand and 10 concentrations of the inhibitory compound (0.0003-10 μM) (in a total reaction volume of 500 μl) for 75 min at room temperature (RT). At the end of the incubation, membranes were filtered onto unitfilter (96-well white microplate with bonded GF/C filter preincubated 1 h in 0.3% PEI+0.3% BSA, Packard BioScience, Meriden, Conn.) with a Filtermate 196 harvester (Packard BioScience) and washed 4 times with ice-cold 50 mM Tris-HCl, pH 7.4 buffer. Nonspecific binding was measured in the presence of 10 μM SB222200 for both radioligands. The radioactivity on the filter was counted (5 min) on a Packard Top-count microplate scintillation counter with quenching correction after addition of 45 μl of microscint 40 (Can berra Packard S. A., Zurich, Switzerland) and shaking for 1 h. Inhibition curves were fitted according to the Hill equation: y=100/(1+(x/IC50)^nH), where nH=slope factor using Excel-fit 4 software (Microsoft). IC50 values were derived from the inhibition curve and the affinity constant (Ki) values were calculated using the Cheng-Prussoff equation Ki=IC50/(1+[L]/KD) where [L] is the concentration of radioligand and KD is its dissociation constant at the receptor, derived from the saturation isotherm. All experiments were performed in duplicate and the mean±standard error (SEM) of the individual Ki values was calculated.
On to `C[C@]1(COc2ccc(Cl)cn2)CN(C(=O)N2CCN(S(C)(=O)=O)CC2)C[C@@H]1c1ccc(Cl)cc1` (racemic) [Example 2, [(3RS,4RS)-4-(4-Chloro-phenyl)-3-(5-chloro-pyridin-2-yloxymethyl)-3-methyl-pyrrolidin-1-yl]-(4-methanesulfonyl-piperazin-1-yl)-methanone], for which the Ki (in general, the equilibrium dissociation constant of an inhibitor or competing ligand from its target) came to 0.0478 µM. For `CC1(C(=O)N2CCC(C(=O)N3C[C@H](c4ccc(Cl)cc4)[C@@](C)(COc4ccc(Cl)cn4)C3)CC2)CC1` (racemic) [Example 3, [(3RS,4RS)-4-(4-Chloro-phenyl)-3-(5-chloro-pyridin-2-yloxymethyl)-3-methyl-pyrrolidin-1-yl]-[1-(1-methyl-cyclopropanecarbonyl)-piperidin-4-yl]-methanone], the Ki was 0.0072 µM. With `C[C@]1(COc2ccc(Cl)cn2)CN(C(=O)c2ccc(-n3cccn3)nc2)C[C@@H]1c1ccc(Cl)cc1` (racemic) [Example 6, [(3RS,4RS)-4-(4-Chloro-phenyl)-3-(5-chloro-pyridin-2-yloxymethyl)-3-methyl-pyrrolidin-1-yl]-(6-pyrazol-1-yl-pyridin-3-yl)-methanone], the Ki turned out to be 0.0352 µM. On to `CC(=O)N1CCC(C(=O)N2C[C@H](c3ccc(Cl)cc3)[C@@](C)(COc3ccc(Cl)cn3)C2)CC1` (racemic) [Example 11, 1-{4-[(3RS,4RS)-4-(4-Chloro-phenyl)-3-(5-chloro-pyridin-2-yloxymethyl)-3-methyl-pyrrolidine-1-carbonyl]-piperidin-1-yl}-ethanone], for which the Ki was found to be 0.0106 µM. Same read-out and setting: the figure for `CC(C)C(=O)N1CCC(C(=O)N2C[C@H](c3ccc(Cl)cc3)[C@@](C)(COc3ccc(Cl)cn3)C2)CC1` (racemic) [Example 13, 1-{4-[(3RS,4RS)-4-(4-Chloro-phenyl)-3-(5-chloro-pyridin-2-yloxymethyl)-3-methyl-pyrrolidine-1-carbonyl]-piperidin-1-yl}-2-methyl-propan-1-one] is 0.0087 µM.

Staying with this test, now noted: membranes from HEK293 cells transiently expressing recombinant human NK3 receptor; [3H]SR142801 radioligand; second half of table, head prints nM; read-out: Ki (nM) hNK3.
As for `C[C@]1(COc2ccc(Cl)cn2)CN(C(=O)C2CCN(c3ccc(C(F)(F)F)cn3)CC2)C[C@@H]1c1ccc(Cl)cc1` (racemic) [Example 22, [(3RS,4RS)-4-(4-Chloro-phenyl)-3-(5-chloro-pyridin-2-yloxymethyl)-3-methyl-pyrrolidin-1-yl]-(5′-trifluoromethyl-3,4,5,6-tetrahydro-2H-[1,2′]bipyridinyl-4-yl)-methanone], the Ki stood at 0.0272 µM.

For the compound `Cc1ccc(N2CCC(C(=O)N3C[C@H](c4ccc(Cl)cc4)[C@@](C)(COc4ccc(Cl)cn4)C3)CC2)nc1` (racemic) [Example 15, [(3RS,4RS)-4-(4-Chloro-phenyl)-3-(5-chloro-pyridin-2-yloxymethyl)-3-methyl-pyrrolidin-1-yl]-(5′-methyl-3,4,5,6-tetrahydro-2H-[1,2′]bipyridinyl-4-yl)-methanone], the Ki is 0.015 µM.

With `C[C@]1(COc2ccc(Cl)cn2)CN(C(=O)c2ccc(C#N)nc2)C[C@@H]1c1ccc(Cl)cc1` (racemic) [Example 21, 5-[(3RS,4RS)-4-(4-Chloro-phenyl)-3-(5-chloro-pyridin-2-yloxymethyl)-3-methyl-pyrrolidine-1-carbonyl]-pyridine-2-carbonitrile], the inhibition constant (Ki) is 0.039 µM. Still for that read-out and setting: the figure for `C[C@]1(COc2ccc(Cl)cn2)CN(C(=O)C2CCN(c3ccc(C#N)cn3)CC2)C[C@@H]1c1ccc(Cl)cc1` (racemic) [Example 16, 4-[(3RS,4RS)-4-(4-Chloro-phenyl)-3-(5-chloro-pyridin-2-yloxymethyl)-3-methyl-pyrrolidine-1-carbonyl]-3,4,5,6-tetrahydro-2H-[1,2′]bipyridinyl-5′-carbonitrile] is 0.0037 µM. On the same count and under the same terms, the figure for `C[C@]1(COc2ccc(Cl)cn2)CN(C(=O)C2CCN(c3ccc(Cl)cn3)CC2)C[C@@H]1c1ccc(Cl)cc1` (racemic) [Example 20, [(3RS,4RS)-4-(4-Chloro-phenyl)-3-(5-chloro-pyridin-2-yloxymethyl)-3-methyl-pyrrolidin-1-yl]-(5′-chloro-3,4,5,6-tetrahydro-2H-[1,2′]bipyridinyl-4-yl)-methanone] is 0.0193 µM.
